From US5254677A, “β-galactosidase substrates for cedia” (Boehringer Mannheim GmbH, priority 1990, dated 1993)

Experiments:
[1] = Absorption maxima of the chromogen and associated extinction coefficients; type: physicochemical; settings: 0.1 mole/l. potassium phosphate buffer (pH 7.0); for ε (extinction coefficient): at the absorption maximum of the chromogen
Excerpt: 1. Wavelengths of the absorption maxima of the chromogen and the associated extinction coefficients (ε).
Measurement in 0.1 mole/l. potassium phosphate buffer (pH 7.0) at the absorption maximum of the chromogen.

[2] = system: β-galactosidase formed from EA22 enzyme acceptor and ED4-thyroxine T4 conjugate; assay: T4/CEDIA test (thyroxine T4 as hapten, monoclonal antibodies against T4), gradient of the calibration curve; type: biochemical; settings: Hitachi 704, 37° C., substrate 1 mg./ml., 376 or 415 nm, percentage of 2-nitrophenyl-β-galactoside (=100%)
Description: 3. Evaluation in the T4/CEDIA (CEDIA with thyroxine T4 as hapten and monoclonal antibodies against thyroxine T4).
The criterion for the evaluation of the individual substrates was the gradient of the calibration curve.
I) Carrying out of the T4/CEDIA test
Definitions: EA=enzyme acceptor; ED=enzyme donor; EA22 =cloned enzyme acceptor for CEDIA; ED4 =cloned enzyme donor for CEDIA. […] The amino acid sequences of these polypeptides are there disclosed.
ΔE/min. was measured in the interval of 9-10 minutes.
Calibration curves were produced for all substrates. Of these curves, the gradients were compared. [formula]
Gradient expressed as percentage value of the 2-nitrophenyl-β-galactoside (=100%) for T4/CEDIA.

β-galactosidase = target: T1, β-galactosidase (Escherichia coli, UniProt P00722); assay: Enzyme activity: extinction change per minute with identical amounts of β-galactosidase (sensitivity and enzymatic cleavage rate of substrates); type: biochemical; settings: measured at the absorption maximum of the particular chromogen (405/376/384/408 nm), 0.05M potassium phosphate buffer pH 7.0
T1 construct: not the CEDIA donor/acceptor fragments
T1 sequence (P00722 2-1024): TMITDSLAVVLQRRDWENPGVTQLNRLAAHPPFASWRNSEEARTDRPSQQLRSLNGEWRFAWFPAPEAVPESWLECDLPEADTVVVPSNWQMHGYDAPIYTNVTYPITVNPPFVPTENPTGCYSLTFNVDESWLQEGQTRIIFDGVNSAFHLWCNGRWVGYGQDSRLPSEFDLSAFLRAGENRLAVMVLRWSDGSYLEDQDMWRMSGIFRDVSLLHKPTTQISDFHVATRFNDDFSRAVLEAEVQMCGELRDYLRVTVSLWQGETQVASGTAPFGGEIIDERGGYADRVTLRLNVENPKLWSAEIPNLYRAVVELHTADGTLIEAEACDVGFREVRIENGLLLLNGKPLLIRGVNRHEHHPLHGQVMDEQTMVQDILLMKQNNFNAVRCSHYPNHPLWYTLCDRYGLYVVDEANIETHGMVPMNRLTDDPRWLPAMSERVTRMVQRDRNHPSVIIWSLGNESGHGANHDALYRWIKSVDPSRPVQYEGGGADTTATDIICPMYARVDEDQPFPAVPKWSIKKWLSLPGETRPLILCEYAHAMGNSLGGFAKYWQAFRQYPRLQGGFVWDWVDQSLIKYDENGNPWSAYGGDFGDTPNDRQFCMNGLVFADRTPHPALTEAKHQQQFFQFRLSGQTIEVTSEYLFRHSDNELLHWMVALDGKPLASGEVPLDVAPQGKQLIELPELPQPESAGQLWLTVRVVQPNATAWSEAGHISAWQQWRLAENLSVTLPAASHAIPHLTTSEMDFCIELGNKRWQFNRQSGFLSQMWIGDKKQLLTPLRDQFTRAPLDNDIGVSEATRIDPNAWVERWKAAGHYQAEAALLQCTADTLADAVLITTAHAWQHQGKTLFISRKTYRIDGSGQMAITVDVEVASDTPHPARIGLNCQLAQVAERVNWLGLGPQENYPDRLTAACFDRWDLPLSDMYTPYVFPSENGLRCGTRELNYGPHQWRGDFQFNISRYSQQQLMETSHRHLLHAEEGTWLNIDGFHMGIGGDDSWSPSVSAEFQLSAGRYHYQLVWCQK
Description: 2. Sensitivity comparison of the substrates and of their enzymatic cleavage rate.
The extinction change per minute (mE/min.) in the region of the absorption maximum (see Table 1) of the particular chromogen was determined with the use of identical amounts of the enzyme β-galactosidase: for the precise conditions see Example 4, II a) and b).
1) 0.05M potassium phosphate buffer, pH 7.0
2) 10 mmole/liter magnesium chloride solution
3) 69.8% (v/v) mercaptoethanol solution
4) p-galactosidase (Boehringer Mannheim GmbH, order No. 105 031)
5) substrate, 5.9 mg./ml. in solution a)
Pre-incubation: the following substances were pipetted into plastic cuvettes: […]
After mixing, the reaction was initiated: […]
Δ/min. was calculated from the linear range.

[3] = system: β-galactosidase formed from EA22 enzyme acceptor and ED4-thyroxine T4 conjugate; settings: prior art substrate of U.S. Pat. No. 4,708,929; cited from earlier work

Row | SMILES | lambda max [1] [nm] | ε (extinction coefficient) [1] [L/mol/cm] | relative gradient of the calibration curve [2] [%] | extinction change per minute (β-galactosidase) [mE/min.] | sensitivity as chromogenic enzyme substrate for CEDIA [3]
1 | O=[N+]([O-])c1ccccc1O [2-nitrophenol] | 408 | 2040 |  |  | 
2 | O=[N+]([O-])c1ccc(O)c(Cl)c1 [2-Cl-4-nitrophenol] | 405 | 16600 |  |  | 
3 | O=[N+]([O-])c1ccc(O[C@@H]2O[C@H](CO)[C@H](O)[C@H](O)[C@H]2O)c(Cl)c1 [Example 2-Cl-4-NPG, 2-chloro-4-nitrophenyl-β-D-galactopyranoside, reference compound] |  |  | 494 | 0.085 | 
4 | N#Cc1cc([N+](=O)[O-])ccc1O[C@@H]1O[C@H](CO)[C@H](O)[C@H](O)[C@H]1O [Example 2-CN-4-NPG, 2-cyano-4-nitrophenyl-β-D-galactopyranoside] |  |  | 561 | 0.150 | 
5 | O=[N+]([O-])c1ccc(O[C@@H]2O[C@H](CO)[C@H](O)[C@H](O)[C@H]2O)c(C(F)(F)F)c1 [Example 2-CF3-4-NPG, 2-trifluoromethyl-4-nitrophenyl-β-D-galactopyranoside] |  |  | 528 | 0.109 | 
6 | O=[N+]([O-])c1ccccc1O[C@@H]1O[C@H](CO)[C@H](O)[C@H](O)[C@H]1O [oNPG, 2-nitrophenyl-β-D-galactopyranoside, reference compound] |  |  | 100 | 0.024 | low sensitivity
7 | N#Cc1cc([N+](=O)[O-])ccc1O [2-CN-4-nitrophenol, 2-Hydroxy-5-nitrobenzonitrile] | 376 | 15700 |  |  | 
8 | O=[N+]([O-])c1ccc(O)c(C(F)(F)F)c1 [2-CF3-4-nitrophenol, 2-Trifluoromethyl-4-nitrophenol] | 384 | 18800 |  |  | 
